In US20230330069A1, “USE OF THIAZOLIDES AGAINST CORONAVIRUSES” (Romark Laboratories, L.C., priority 2020, published 2023):
Where two headings read alike, the source gives them in different places.

Assays:
[1] = Example 1 trial: adverse events / tolerability; format: in vivo, human; details: 600 mg orally twice daily
SARS-CoV-2 = format: in vivo
SARS-CoV-2 RNA = format: in vivo; details: for Mean (SD) Viral Load Change from Baseline / Percent Positive for SARS-CoV-2 RNA: nasopharyngeal swabs; for Percent Positive for SARS-CoV-2 RNA: 177 samples
[2] = in vivo
Description: (§1) After randomization, eligible subjects underwent a physical examination, collection of nasopharyngeal swabs, and blood and urine samples for laboratory safety testing and assessment of SARS-CoV-2 antibody titers. Study drug was dispensed, and subjects were followed for 28 days. Subjects were instructed to complete electronic diaries recording oral temperature twice daily and symptom severity once daily in the evening for 21 days and were contacted daily by telephone by site staff on study days 2-7 and 28 to verify compliance and screen for progression to severe illness or other complications. Repeat nasopharyngeal swabs were collected on study days 4 and 10. Follow up blood and urine samples for laboratory safety testing and assessment of SARS-CoV-2 antibody titers were collected on study day 22. Subjects were allowed to use acetaminophen and/or dextromethorphan for symptom relief along with standard-of-care rescue medications. Adverse events were collected continuously throughout the study and monitored until the events resolved.
(§2) Efficacy analyses were based on a modified intention to treat (mITT) population of subjects testing positive for SARS-CoV-2 at baseline.

COVID-19 = details: 600 mg twice daily for seven days; hospitalized moderate to severe COVID-19; cited from earlier work
[3] = Example 5 trial: safety analyses (adverse events); details: one severe COVID-19, one aspiration (SARS-CoV-2 negative); not considered related to study medication
Description: as §1, §2

[4] = 133 subjects with moderate illness at baseline
[5] = all SARS-CoV-2-positive subjects (mITT)
[6] = all SARS-CoV-2-positive subjects (mITT), 600 mg twice daily for 5 days
[7] = all SARS-CoV-2-positive subjects (mITT), listed as NTZ
[8] = all SARS-CoV-2-positive subjects (mITT), listed as nitazoxanide
[9] = subgroup 'May Be' or 'At Increased Risk' for severe COVID-19 per CDC (protocol-defined stratification factor)
[10] = subgroup At High Risk of progressing to severe COVID-19 and/or hospitalization (per EUA documents for monoclonal antibodies)
[11] = subgroup At Increased Risk for severe COVID-19 per CDC

CC(=O)Oc1ccccc1C(=O)Nc1ncc([N+](=O)[O-])s1 [Nitazoxanide, 2-(acetolyloxy)-N-(5-nitro-2-thiazolyl) benzamide]
adverse event: mild chromaturia, subjects ([1]; placebo 1.0%): 14.6%
adverse event: diarrhea, subjects ([1]; placebo 4.9%): 6.6%
subjects progressing to severe illness (SARS-CoV-2; 68 subjects with moderate illness at baseline in nitazoxanide arm, placebo two of 65): None and none
TSR vs placebo (SARS-CoV-2; [4]): longer
time to return to usual health vs placebo (SARS-CoV-2; [4]): longer
relative reduction in rate of hospitalization, emergency room visit or death vs placebo (SARS-CoV-2; [5]): 82%
relative reduction of progression to severe COVID-19 vs placebo (SARS-CoV-2; [5]): 85%
subjects experiencing hospitalization, emergency room visit or death (%) (SARS-CoV-2; [5]): 0.5%
subjects experiencing hospitalization, emergency room visit or death (n/N) (SARS-CoV-2; [5]): 1/184
subjects progressing to severe COVID-19 (%) (SARS-CoV-2; [6]): 0.5%
subjects progressing to severe COVID-19 (n/N) (SARS-CoV-2; [6]): 1/184
subjects progressing to severe COVID-19 (%) (SARS-CoV-2; all SARS-CoV-2-positive subjects (mITT), 600 mg twice daily for 5 days, listed as NTZ): (0.5%)
subjects progressing to severe COVID-19 (%) (SARS-CoV-2; all SARS-CoV-2-positive subjects (mITT), 600 mg twice daily for 5 days, listed as nitazoxanide): 0.5%
relative reduction in rate of hospitalization, emergency room visit or death vs placebo (SARS-CoV-2; [7]): 82%
relative reduction of progression to severe COVID-19 vs placebo (SARS-CoV-2; [7]): 85%
subjects experiencing hospitalization, emergency room visit or death (%) (SARS-CoV-2; [7]): (0.5%)
relative reduction in rate of hospitalization, emergency room visit or death vs placebo (SARS-CoV-2; [8]): 82%
relative reduction of progression to severe COVID-19 vs placebo (SARS-CoV-2; [8]): 85%
Median (IQR) time from first dose to sustained response (TSR) (SARS-CoV-2; all mITT subjects, placebo 12.35 (7.18->21), p=0.88): 13.28 (6.26->21) days
relative reduction in rate of hospitalization, emergency room visit or death vs placebo (SARS-CoV-2; [9]): 81%
relative reduction of progression to severe COVID-19 vs placebo (SARS-CoV-2; [9]): 84%
subjects experiencing hospitalization, emergency room visit or death (%) (SARS-CoV-2; [9]): (0.9%)
subjects experiencing hospitalization, emergency room visit or death (n/N) (SARS-CoV-2; [9]): 1/112
subjects progressing to severe COVID-19 (%) (SARS-CoV-2; [9]): (0.9%)
subjects progressing to severe COVID-19 (n/N) (SARS-CoV-2; [9]): 1/112
relative reduction in rate of hospitalization, emergency room visit or death vs placebo (SARS-CoV-2; [10]): 77%
relative reduction of progression to severe COVID-19 vs placebo (SARS-CoV-2; [10]): 81%
subjects experiencing hospitalization, emergency room visit or death (%) (SARS-CoV-2; [10]): (1.7%)
subjects experiencing hospitalization, emergency room visit or death (n/N) (SARS-CoV-2; [10]): 1/60
subjects progressing to severe COVID-19 (%) (SARS-CoV-2; [10]): (1.7%)
subjects progressing to severe COVID-19 (n/N) (SARS-CoV-2; [10]): 1/60
relative reduction in rate of hospitalization, emergency room visit or death vs placebo (SARS-CoV-2; [11]): 81%
relative reduction of progression to severe COVID-19 vs placebo (SARS-CoV-2; [11]): 83%
subjects experiencing hospitalization, emergency room visit or death (%) (SARS-CoV-2; [11]): (1.0%)
subjects experiencing hospitalization, emergency room visit or death (n/N) (SARS-CoV-2; [11]): 1/104
subjects progressing to severe COVID-19 (%) (SARS-CoV-2; [11]): (1.0%)
subjects progressing to severe COVID-19 (n/N) (SARS-CoV-2; [11]): 1/104
median TSR (SARS-CoV-2; subjects with mild illness at baseline, n=116, placebo 13.4): 10.3 days
reduction of median time to return to usual health vs placebo (SARS-CoV-2; subjects with mild illness at baseline, p=0.0075): 5.2 days
reduction of median TSR (time to sustained clinical recovery) vs placebo (SARS-CoV-2; subjects with mild illness at baseline, p=0.0932): 3.1 days
median time from first dose until subjects reported returning to usual health (SARS-CoV-2; subjects with mild illness at baseline, placebo 18.4): 13.2 days
Mean (SD) Viral Load Change from Baseline (SARS-CoV-2 RNA; Day 4): −0.70 (1.573) log10 copies/mL
Percent Positive for SARS-CoV-2 RNA (SARS-CoV-2 RNA; Day 4): 94%
Mean (SD) Viral Load Change from Baseline (SARS-CoV-2 RNA; Day 10): −2.49 (1.582) log10 copies/mL
Percent Positive for SARS-CoV-2 RNA (SARS-CoV-2 RNA; Day 10): 73%
Viral Load Day 4 (SARS-CoV-2 RNA; single NTZ-treated subject who progressed to severe COVID-19, Day 1 value 7.39): 7.39/4.79 log10 RNA copies/mL
subjects reporting at least one adverse event (%) ([2]; human): 13.3%
subjects reporting diarrhea (%) ([2]; human): 3.4%
subjects reporting at least one adverse event (number) [2]: Sixty-three
subjects reporting serious adverse events [2]: Two
subjects who discontinued study medication due to adverse events [2]: Two
safety and tolerability ([2]; po): safe and well tolerated
duration of supplemental oxygen vs placebo (COVID-19): reductions
rate of mechanical ventilation vs placebo (COVID-19): reductions
rate of mortality vs placebo (COVID-19): reductions
time to hospital discharge vs placebo (COVID-19): reductions
subjects who died during the study [3]: Two
